Measured values published in patent US20220387457A1 (Qlaris Bio, Inc., priority 2020, published 2022).
Where two headings read alike, the source gives them in different places.

Experiments:
acid phosphatase = test: Conversion of CKLP1 by acid phosphatase, LC/MS-MS, pH 7.4; type: biochemical, human; conditions: up to 2 hours
Procedure: Conversion of CKLP1 (200 μM-5.0 mM) was examined by LC/MS-MS following incubation at pH 7.4 with either human alkaline phosphatase (ALP), acid phosphatase, or 5′-nucleotidase (2.01 nM-1.0 μM) for up to 2 hours.

[1] = molecular target: T1, placenta-derived human alkaline phosphatase (Homo sapiens, UniProt P05187); test: Dose- and time-dependent conversion of CKLP1 to levcromakalim by placenta-derived human alkaline phosphatase, pH 10; type: biochemical
T1 construct: varying concentrations of placenta-derived human alkaline phosphatase; from tissue; host or cells: human placenta
T1 sequence (P05187 23-506): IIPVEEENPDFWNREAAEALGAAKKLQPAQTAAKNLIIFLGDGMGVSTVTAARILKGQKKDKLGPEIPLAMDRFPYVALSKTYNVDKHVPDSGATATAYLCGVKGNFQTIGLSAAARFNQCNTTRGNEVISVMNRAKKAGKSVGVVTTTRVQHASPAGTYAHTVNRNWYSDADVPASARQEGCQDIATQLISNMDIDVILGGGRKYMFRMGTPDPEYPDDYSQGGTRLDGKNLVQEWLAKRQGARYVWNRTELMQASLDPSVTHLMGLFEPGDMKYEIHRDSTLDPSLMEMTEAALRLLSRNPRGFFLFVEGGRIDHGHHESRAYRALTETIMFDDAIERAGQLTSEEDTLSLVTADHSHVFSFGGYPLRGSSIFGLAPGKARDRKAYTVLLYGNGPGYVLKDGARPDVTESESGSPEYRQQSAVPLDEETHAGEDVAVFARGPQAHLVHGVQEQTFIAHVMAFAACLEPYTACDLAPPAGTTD
Procedure: To activate CKLP1, the phosphate is hydrolyzed from phosphatases to produce leveromakalim, the active moiety that can open (activate) ATP-sensitive potassium channels.
In the first experiment, a fixed concentration of CKLP1 solution was incubated with varying concentrations of placenta-derived human alkaline phosphatase. To accomplish this, placenta-derived human alkaline phosphatase (0.0002 U) in a 100-μL volume was added to each of thirteen 1.5-mL tubes. To each tube, CKLP1 was then added at a fixed concentration [10 mM (0.4%)]. Tubes were inverted twice and incubated in a water bath at 37° C. At each of 13 different time points (0, 1, 2.5, 5, 15, and 30 minutes and at 1, 2, 4, 8, 24, 48, and 72 hours), a single tube was removed, and the reaction was stopped by the addition of 2 volumes (200 μL) of acetonitrile. Samples were stored at −80° C. The experiment was repeated with 10 mM CKLP1 (0.4%) in the presence of placenta-derived human alkaline phosphatase at concentrations of 0.002 U, 0.02 U, and 0.2 U. All assays were performed at pH 10.
In a second experiment, a fixed concentration of placenta-derived human alkaline phosphatase was incubated with varying concentrations of CKLP1. To accomplish this, a fixed concentration of 0.02 U of placenta-derived human alkaline phosphatase in a 100-μL volume was added to each of thirteen 1.5-mL tubes. To each tube, CKLP1 was then added [0.01 mM (0.0004%)]. Tubes were inverted twice and incubated in a water bath at 37° C. At each of 13 different time points (0, 1, 2.5, 5, 15, and 30 minutes and at 1, 2, 4, 8, 24, 48, and 72 hours), a single tube was removed and the reaction was stopped by the addition of 2 volumes (200 μL) of acetonitrile. Samples were stored at −80° C. The experiment was repeated with the same concentration of placenta-derived human alkaline phosphatase (0.02 U) and various concentrations of CKLP1 [0.1 mM (0.004%), 1 mM (0.04%), 10 mM (0.4%), 20 mM (0.8%), and 40 mM (1.6%)]. All assays were performed at pH 10.

[2] = Plasma pharmacokinetics, 28-day topical ophthalmic dosing in beagle dogs; conditions: dog, in vivo; for concentration at 336 h: both sexes
Procedure: (§1) In the study, dogs (3 males and 3 females) received bilateral daily topical administration of 40 μL/eye of 2.0%, 4.0%, or 8.0% as measured in mg/mL (equivalent to 0.8, 1.6, or 3.2 mg CKLP1 per eye) of CKLP1 in phosphate buffered saline. Based on an average male dog weight of 7.9 kg at the start of the study, these doses were equivalent to 0.20 mg/kg, 0.41 mg/kg, or 0.81 mg/kg and based on an average female dog weight of 6.0 kg at the start of the study, these doses were equivalent to 0.27 mg/kg, 0.53 mg/kg, or 1.07 mg/kg. Blood was collected for toxicokinetic analysis pre-dose and at 1, 2, 4, 8, 12, and 24 hours post dosing on days 1 and 28. In addition, 2 animals of each gender were allowed 336 hours (14 days) of recovery time following the final dose, at which point final blood samples were obtained.

beagle dogs = test: Safety findings, 28-day topical ophthalmic dosing in beagle dogs; type: in vivo, beagle dog
Procedure: as §1

rats = test: 28-day intravenous administration of CKLP1 in rats; type: in vivo, rat
From the text: Three groups of rats were intravenously administered different doses of CKLP1. The study was 28 days long with a 14-day recovery period.

mice (IOP) = conditions: previously reported; cited from earlier work
[3] = beagle, terminal elimination half-life
[4] = female, beagle, topical or ocular, 0.27 mg/kg
[5] = female, beagle, topical or ocular, 1.07 mg/kg
[6] = female, beagle, topical or ocular, […]
[7] = male, beagle, topical or ocular, 0.2 mg/kg
[8] = male, beagle, topical or ocular, 0.41 mg/kg
[9] = male, beagle, topical or ocular, 0.81 mg/kg
[10] = female, beagle, topical or ocular, 3.2 mg
[11] = male, beagle, topical or ocular, 1.6 mg

CC1(C)Oc2ccc(C#N)cc2[C@@H](N2CCCC2=O)[C@@H]1OP(=O)(O)O [CKLP1]
conversion of CKLP1 to levcromakalim (acid phosphatase): not | conversion rate of CKLP1 to levcromakalim at 24 hours ([1]; ALP 0.02 U/100 μL, CKLP1 0.01 mM): 26.9% | conversion rate of CKLP1 to levcromakalim at 24 hours ([1]; ALP 0.02 U/100 μL, CKLP1 0.1 mM): 20.0% | conversion rate of CKLP1 to levcromakalim at 24 hours ([1]; ALP 0.02 U/100 μL, CKLP1 1 mM): 5.2% | conversion rate of CKLP1 to levcromakalim at 24 hours ([1]; ALP 0.02 U/100 μL, CKLP1 10 mM): 4.9% | conversion rate of CKLP1 to levcromakalim at 24 hours ([1]; ALP 0.02 U/100 μL, CKLP1 20 mM): 3.2% | conversion rate of CKLP1 to levcromakalim at 24 hours ([1]; ALP 0.02 U/100 μL, CKLP1 40 mM): 1.7% | conversion rate of CKLP1 to levcromakalim at 24 hours ([1]; CKLP1 10 mM, ALP 0.0002 U/100 μL): 0.4% | conversion rate of CKLP1 to levcromakalim at 24 hours ([1]; CKLP1 10 mM, ALP 0.002 U/100 μL): 1.3% | conversion rate of CKLP1 to levcromakalim at 24 hours ([1]; CKLP1 10 mM, ALP 0.02 U/100 μL): 4.8% | conversion rate of CKLP1 to levcromakalim at 24 hours ([1]; CKLP1 10 mM, ALP 0.2 U/100 μL): 13.7% | conversion of CKLP1 to levcromakalim, maximum ([1]; CKLP1 fixed 10 mM (0.4%), ALP 0.0002-0.2 U/100 μL, up to 72 hours, pH 10, 37° C.): ≤ 21% | half-life ([2]; beagle, mean T1/2 of CKLP1): 3.32 to 6.18 h | half-life [2, 3]: 3 to 6 h | concentration at 336 h ([2]; beagle): < 2 ng/mL | predose levels of CKLP1 on day 28, times lower than peak plasma concentrations ([2]; both, beagle): 16-25 times | accumulation of CKLP1 on day 28 relative to day 1 [2]: no accumulation | time of Cmax of CKLP1 [2]: 1 to 2 h | AUC0-last [2, 4]: 545 ng·h/mL | AUC(0-inf) [2, 4]: 660 ng·h/mL | Cmax [2, 4]: 80.2 ng/mL | Tmax [2, 4]: 2 h | t1/2 [2, 4]: 3.68 h | AUC(0-t) ([2]; female, beagle, topical or ocular, 0.27 mg/kg, AUC0-last): 496 ng·h/mL | Cmax ([2]; female, beagle, topical or ocular, 0.27 mg/kg, Cmax): 55.5 ng/mL | half-life ([2]; female, beagle, topical or ocular, 0.27 mg/kg, t1/2): 4.12 h | AUC0-last [2, 5]: 1200 ng·h/mL | AUC(0-inf) [2, 5]: 1860 ng·h/mL | Cmax [2, 5]: 139 ng/mL | Tmax [2, 5]: 2 h | t1/2 [2, 5]: 5.15 h | AUC(0-t) ([2]; female, beagle, topical or ocular, 1.07 mg/kg, AUC0-last): 1480 ng·h/mL | Cmax ([2]; female, beagle, topical or ocular, 1.07 mg/kg, Cmax): 156 ng/mL | half-life ([2]; female, beagle, topical or ocular, 1.07 mg/kg, t1/2): 4.92 h | AUC0-last [2, 6]: 1750 ng·h/mL | Tmax [2, 6]: 2 h | half-life ([2]; female, beagle, topical or ocular, […], t1/2): 6.18 h | AUC0-last [2, 7]: 272 ng·h/mL | AUC(0-inf) [2, 7]: 299 ng·h/mL | Cmax [2, 7]: 47.0 ng/mL | Tmax [2, 7]: 1 h | t1/2 [2, 7]: 3.44 h | AUC(0-t) ([2]; male, beagle, topical or ocular, 0.2 mg/kg, AUC0-last): 231 ng·h/mL | Cmax ([2]; male, beagle, topical or ocular, 0.2 mg/kg, Cmax): 36.5 ng/mL | half-life ([2]; male, beagle, topical or ocular, 0.2 mg/kg, t1/2): 3.69 h | AUC0-last [2, 8]: 381 ng·h/mL | AUC(0-inf) [2, 8]: 571 ng·h/mL | Cmax [2, 8]: 57.3 ng/mL | Tmax [2, 8]: 1 h | t1/2 [2, 8]: 3.32 h | AUC(0-t) ([2]; male, beagle, topical or ocular, 0.41 mg/kg, AUC0-last): 520 ng·h/mL | Cmax ([2]; male, beagle, topical or ocular, 0.41 mg/kg, Cmax): 73.7 ng/mL | half-life ([2]; male, beagle, topical or ocular, 0.41 mg/kg, t1/2): 4.26 h | AUC0-last [2, 9]: 1260 ng·h/mL | AUC(0-inf) [2, 9]: 1580 ng·h/mL | Tmax [2, 9]: 2 h | t1/2 [2, 9]: 5.08 h | AUC(0-t) ([2]; male, beagle, topical or ocular, 0.81 mg/kg, AUC0-last): 1520 ng·h/mL | Cmax ([2]; male, beagle, topical or ocular, 0.81 mg/kg, CKLP1, Male, topical 8.0% CKLP1 daily, Day 1, read-out: Cmax): 166 ng/mL | Cmax ([2]; male, beagle, topical or ocular, 0.81 mg/kg, CKLP1, Male, topical 8.0% CKLP1 daily, Day 28, read-out: Cmax): 147 ng/mL | half-life ([2]; male, beagle, topical or ocular, 0.81 mg/kg, t1/2): 4.82 h | Cmax ([2]; male, beagle, topical or ocular, 8 %, day 28, males, read-out: mean Cmax at NOAEL): 147 ng/mL | AUC(0-t) ([2]; male, beagle, topical or ocular, 8.0%, day 28, males, read-out: mean AUC Tlast at NOAEL): 1260 ng·h/mL | non-adverse ocular effects (beagle dogs; 3.2 mg/eye/dose (8%)): slight to moderate redness (congestion) | microscopic findings, lacrimal gland (beagle dogs; 2 females at 3.2 mg/eye/dose (8%)): mild lacrimal gland acinar atrophy | reversibility of ocular findings (beagle dogs; 14-day recovery period): all ocular findings were fully recovered | microscopic findings, corneal epithelium (beagle dogs; males at ≥1.6 mg/eye/dose (4%) and 1 female at 3.2 mg/eye/dose (8%)): mild increased mitoses in the corneal epithelium | no-observed-adverse-effect level (NOAEL) (beagle dogs; topical, 28 days, % as measured in mg/mL): 8.0% | food consumption, body weight, body weight gains vs control (rats; IV 0.15, 1.5, 15 mg/kg/day, 28 days): no difference | Clinical Signs (rats; IV CKLP1 0.15 mg/kg/day): Red skin forelimbs and hindlimbs; red pinnae; red | Clinical Signs (rats; IV CKLP1 1.5 mg/kg/day): Red skin forelimbs and hindlimbs; red skin | Clinical Signs (rats; IV CKLP1 15 mg/kg/day): Red skin forelimbs and hindlimbs; red skin | peripheral vasodilation (rats; following intravenous administration in rats): induces peripheral vasodilation | dose with red skin forelimbs and hindlimbs, red pinnae, red scrotums (rats; male and female rats, IV): ≥ 0.15 mg/kg/day | dose with red skin forepaws (rats; males and females, IV): ≥ 1.5 mg/kg/day | eye color (rats; males, 15 mg/kg): Abnormal eye color | IOP lowered by (mice (IOP)): approximately 17%

CC1(C)Oc2ccc(C#N)cc2[C@@H](N2CCCC2=O)[C@@H]1O [Levcromakalim, levcromakalim, reference compound]
half-life ([2]; beagle, mean T1/2 of levcromakalim): 2.06 to 4.9 h | half-life [2, 3]: 2 to 5 h | concentration at 336 h ([2]; beagle): < 0.499 ng/mL | AUC(0-inf) [2, 4]: 96.8 ng·h/mL | AUC(0-inf) [2, 10]: 304 ng·h/mL | t1/2 [2, 10]: 2.73 h | half-life ([2]; female, beagle, topical or ocular, 3.2 mg, t1/2): 4.9 h | AUC(0-inf) [2, 6]: 131 ng·h/mL | AUC(0-inf) ([2]; male, beagle, topical or ocular): 111 ng·h/mL | AUC(0-inf) [2, 11]: 185 ng·h/mL | Tmax [2, 11]: 4 h | AUC(0-inf) ([2]; male, beagle, topical or ocular, 3.2 mg): 371 ng·h/mL
